Test results published in article PMC11472310, “Distinctive Immune Signatures Driven by Structural Alterations in Desmuramylpeptide NOD2 Agonists” (Journal of Medicinal Chemistry, 2024).
Read-outs that look alike come from different tables or passages of the source.

Target: T1, hNOD2 (Homo sapiens, UniProt Q9HC29)
T1 construct: host or cells: HEK-Blue NOD2 cells (HEK293)
Assay: HEK-Blue NOD2 cell line reporter assay (NF-κB-inducible SEAP)
Format: cell-based
Experimental: To assess the NOD2 agonistic potential of the synthesized desmuramylpeptides at a cellular level, we employed the HEK-Blue NOD2 cell line reporter assay, a validated and commercially available method. All synthesized compounds were evaluated for their dose-dependent activities to establish their EC50 values.
The HEK-Blue NOD1 and NOD2 cell line reporter assay was generated from HEK293 cells through cotransfection of the hNOD1 or hNOD2 gene, respectively, along with an NF-κB-inducible secreted embryonic alkaline phosphatase (SEAP) reporter gene. Upon activation of NOD1 or NOD2, NF-κB triggers the production of SEAP, which can be quantitatively measured colorimetrically. […] After 18 h of incubation at 37 °C with 5% CO2, SEAP activity was measured spectrophotometrically by absorbance at 630 nm (BioTek Synergy microplate reader; Winooski, VT, USA). EC50 values were determined using Prism software (version 9; GraphPad Software, CA, USA). Each experiment was conducted in duplicate and repeated in at least two independent biological replicates.

[1] = HEK-Blue NOD2 cells, 18 h, NF-κB transcriptional activity (SEAP), read-out: EC50 (nM), NOD2 agonistic activity

T1 sequence (Q9HC29 whole entry): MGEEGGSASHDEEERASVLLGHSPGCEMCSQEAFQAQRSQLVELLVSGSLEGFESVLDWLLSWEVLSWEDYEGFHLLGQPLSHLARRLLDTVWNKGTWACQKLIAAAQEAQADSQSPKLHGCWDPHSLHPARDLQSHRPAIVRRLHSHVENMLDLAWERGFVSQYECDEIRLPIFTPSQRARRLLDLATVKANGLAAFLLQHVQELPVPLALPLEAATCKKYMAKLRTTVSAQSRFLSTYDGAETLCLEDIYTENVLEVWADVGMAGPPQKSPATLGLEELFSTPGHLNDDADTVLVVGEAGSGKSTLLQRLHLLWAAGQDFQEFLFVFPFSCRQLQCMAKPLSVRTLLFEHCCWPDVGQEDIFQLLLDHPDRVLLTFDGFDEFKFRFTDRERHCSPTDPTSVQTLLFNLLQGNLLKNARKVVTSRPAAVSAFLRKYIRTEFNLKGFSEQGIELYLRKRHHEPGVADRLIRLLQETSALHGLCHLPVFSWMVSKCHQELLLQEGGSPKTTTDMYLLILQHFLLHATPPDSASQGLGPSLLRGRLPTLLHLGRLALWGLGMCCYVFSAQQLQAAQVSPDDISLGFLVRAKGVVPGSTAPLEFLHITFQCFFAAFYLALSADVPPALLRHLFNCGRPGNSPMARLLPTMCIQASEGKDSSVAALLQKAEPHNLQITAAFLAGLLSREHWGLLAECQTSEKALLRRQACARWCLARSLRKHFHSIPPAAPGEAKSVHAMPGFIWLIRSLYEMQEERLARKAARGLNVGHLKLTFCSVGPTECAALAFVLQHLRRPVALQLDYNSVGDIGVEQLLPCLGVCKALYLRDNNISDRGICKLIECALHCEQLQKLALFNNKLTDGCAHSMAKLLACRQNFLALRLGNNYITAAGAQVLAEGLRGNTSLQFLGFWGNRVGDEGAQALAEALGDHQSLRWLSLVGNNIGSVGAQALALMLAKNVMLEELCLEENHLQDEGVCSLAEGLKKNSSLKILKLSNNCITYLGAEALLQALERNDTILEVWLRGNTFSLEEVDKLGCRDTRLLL

SMILES | EC50 [1] [nM] | also measured
CCCCCC(=O)Oc1ccc(/C=C/C(=O)NCC(=O)N[C@H](C(=O)N[C@H](CCC(=O)OCC)C(=O)OCC)C(C)C)cc1OC [Compound 4, Diethyl ((E)-3-(4-(Hexanoyloxy)-3-methoxyphenyl)acryloyl)glycyl-L-valyl-D-glutamate] | 20.2 ± 1.2 | –
CCCCCCCC(=O)Oc1ccc(/C=C/C(=O)NCC(=O)N[C@H](C(=O)N[C@H](CCC(=O)OCC)C(=O)OCC)C(C)C)cc1OC [Compound 5, Diethyl ((E)-3-(3-Methoxy-4-(octanoyloxy)phenyl)acryloyl)glycyl-L-valyl-D-glutamate] | 25.5 ± 2.2 | –
CCCCCCCCC(=O)Oc1ccc(/C=C/C(=O)NCC(=O)N[C@H](C(=O)N[C@H](CCC(=O)OCC)C(=O)OCC)C(C)C)cc1OC [Compound 6] | 24.8 ± 2.3 | –
CCCCCCCCCC(=O)Oc1ccc(/C=C/C(=O)NCC(=O)N[C@H](C(=O)N[C@H](CCC(=O)OCC)C(=O)OCC)C(C)C)cc1OC [Compound 7, Diethyl ((E)-3-(4-(Decanoyloxy)-3-methoxyphenyl)acryloyl)glycyl-L-valyl-D-glutamate] | 30.6 ± 5.5 | –
CCCCCCCCCCCCCC(=O)Oc1ccc(/C=C/C(=O)NCC(=O)N[C@H](C(=O)N[C@H](CCC(=O)OCC)C(=O)OCC)C(C)C)cc1OC [Compound 8, Diethyl ((E)-3-(3-Methoxy-4-(tetradecanoyloxy)phenyl)acryloyl)glycyl-L-valyl-D-glutamate] | 69.5 ± 5.1 | –
CCCCCCCCCCCCCCCCCC(=O)Oc1ccc(/C=C/C(=O)NCC(=O)N[C@H](C(=O)N[C@H](CCC(=O)OCC)C(=O)OCC)C(C)C)cc1OC [Compound 10] | 7200 ± 2640 | EC50 (HEK-Blue NOD2 cells, 18 h, read-out: EC50, NOD2 agonistic activity (text)): 7200 nM
CCCCCC(C)C(=O)Oc1ccc(/C=C/C(=O)NCC(=O)N[C@H](C(=O)N[C@H](CCC(=O)OCC)C(=O)OCC)C(C)C)cc1OC (stereo partly drawn) [Compound 11, Diethyl ((E)-3-(3-Methoxy-4-((2-methylheptanoyl)oxy)phenyl)acryloyl)glycyl-L-valyl-D-glutamate] | 11.7 ± 2.8 | –
CCCCC(CC)C(=O)Oc1ccc(/C=C/C(=O)NCC(=O)N[C@H](C(=O)N[C@H](CCC(=O)OCC)C(=O)OCC)C(C)C)cc1OC (stereo partly drawn) [Compound 12, Diethyl ((E)-3-(4-((2-ethylhexanoyl)oxy)-3-methoxyphenyl)acryloyl)glycyl-L-valyl-D-glutamate] | 21.6 ± 6.5 | –
CCCCCCC(CC)C(=O)Oc1ccc(/C=C/C(=O)NCC(=O)N[C@H](C(=O)N[C@H](CCC(=O)OCC)C(=O)OCC)C(C)C)cc1OC (stereo partly drawn) [Compound 13, Diethyl ((E)-3-(4-((2-Ethyloctanoyl)oxy)-3-methoxyphenyl)acryloyl)glycyl-L-valyl-D-glutamate] | 9.7 | EC50 (supplementary SMILES csv, read-out: HEK-blue hNOD2 EC50): 9.7 nM
CCCCCC(CCC)C(=O)Oc1ccc(/C=C/C(=O)NCC(=O)N[C@H](C(=O)N[C@H](CCC(=O)OCC)C(=O)OCC)C(C)C)cc1OC (stereo partly drawn) [Compound 14, Diethyl ((E)-3-(3-Methoxy-4-((2-propylheptanoyl)oxy)phenyl)acryloyl)glycyl-L-valyl-D-glutamate] | 19.4 ± 3.6 | –
CCCCC(CCCC)C(=O)Oc1ccc(/C=C/C(=O)NCC(=O)N[C@H](C(=O)N[C@H](CCC(=O)OCC)C(=O)OCC)C(C)C)cc1OC [Compound 15, Diethyl ((E)-3-(4-((2-Butylhexanoyl)oxy)-3-methoxyphenyl)acryloyl)glycyl-L-valyl-D-glutamate] | 22.4 ± 5.9 | –
CCOC(=O)CC[C@@H](NC(=O)[C@@H](NC(=O)CNC(=O)/C=C/c1ccc(OC(=O)CCCC2CCCCC2)c(OC)c1)C(C)C)C(=O)OCC [Compound 16, Diethyl ((E)-3-(4-((4-Cyclohexylbutanoyl)oxy)-3-methoxyphenyl)acryloyl)glycyl-L-valyl-D-glutamate] | 25.8 ± 3.3 | –
CCCCCC(CCCCC)C(=O)Oc1ccc(/C=C/C(=O)NCC(=O)N[C@H](C(=O)N[C@H](CCC(=O)OCC)C(=O)OCC)C(C)C)cc1OC [Compound 17, Diethyl ((E)-3-(3-Methoxy-4-((2-pentylheptanoyl)oxy)phenyl)acryloyl)glycyl-L-valyl-D-glutamate] | 88.6 ± 10.5 | drop of activity compared to 2 (EC50 ratio versus 2 (lauroyl)): 9 factor
CCCCCCCC/C=C\CCCCCCCC(=O)Oc1ccc(/C=C/C(=O)NCC(=O)N[C@H](C(=O)N[C@H](CCC(=O)OCC)C(=O)OCC)C(C)C)cc1OC [Compound 18, Diethyl ((E)-3-(3-Methoxy-4-(oleoyloxy)phenyl)acryloyl)glycyl-L-valyl-D-glutamate] | 422 ± 120 | increase in potency compared to saturated counterpart 10 (EC50 ratio versus 10 (stearoyl)): 17 fold
CCCCC/C=C\C/C=C\CCCCCCCC(=O)Oc1ccc(/C=C/C(=O)NCC(=O)N[C@H](C(=O)N[C@H](CCC(=O)OCC)C(=O)OCC)C(C)C)cc1OC [Compound 19, Diethyl ((E)-3-(3-Methoxy-4-(((9Z,12Z)-octadeca-9,12-dienoyl)oxy)phenyl)acryloyl)glycyl-L-valyl-D-glutamate] | 198 ± 39.1 | –
CC/C=C\C/C=C\C/C=C\CCCCCCCC(=O)Oc1ccc(/C=C/C(=O)NCC(=O)N[C@H](C(=O)N[C@H](CCC(=O)OCC)C(=O)OCC)C(C)C)cc1OC [Compound 20, Diethyl ((E)-3-(3-Methoxy-4-(((9Z,12Z,15Z)-octadeca-9,12,15-trienoyl)oxy)phenyl)acryloyl)glycyl-L-valyl-D-glutamate] | 135 ± 28.9 | –
CCCCC/C=C\C/C=C\C/C=C\CCCCC(=O)Oc1ccc(/C=C/C(=O)NCC(=O)N[C@H](C(=O)N[C@H](CCC(=O)OCC)C(=O)OCC)C(C)C)cc1OC [Compound 21, Diethyl ((E)-3-(3-Methoxy-4-(((6Z,9Z,12Z)-octadeca-6,9,12-trienoyl)oxy)phenyl)acryloyl)glycyl-L-valyl-D-glutamate] | 205 ± 28.6 | –
CC/C=C\C/C=C\C/C=C\C/C=C\C/C=C\C/C=C\CCC(=O)Oc1ccc(/C=C/C(=O)NCC(=O)N[C@H](C(=O)N[C@H](CCC(=O)OCC)C(=O)OCC)C(C)C)cc1OC [Compound 22, Diethyl ((E)-3-(4-(((4Z,7Z,10Z,13Z,16Z,19Z)-Docosa-4,7,10,13,16,19-hexaenoyl)oxy)-3-methoxyphenyl)acryloyl)glycyl-L-valyl-D-glutamate] | 200 ± 50.8 | –
CCOC(=O)CC[C@@H](NC(=O)[C@@H](NC(=O)CNC(=O)/C=C/c1ccc(OC(=O)CCCCCCCCCCCCCO)c(OC)c1)C(C)C)C(=O)OCC [Compound 24, Diethyl ((E)-3-(4-((14-Hydroxytetradecanoyl)oxy)-3-methoxyphenyl)acryloyl)glycyl-L-valyl-D-glutamate] | 12.3 ± 1.5 | boost of NOD2 agonistic activity compared to 8 (EC50 ratio versus unsubstituted myristoylated 8): 6 fold
CCOC(=O)[C@@H](CCC(=O)NCCCCN)NC(=O)[C@@H](NC(=O)CNC(=O)/C=C/c1ccc(O)c(OC)c1)C(C)C [Compound 30, Ethyl N^5-(4-Aminobutyl)-N^2-((E)-3-(4-hydroxy-3-methoxyphenyl)acryloyl)glycyl-L-valyl-D-glutaminate] | > 10000 | –
CCOC(=O)[C@@H](CCC(=O)NCCCNCCCCN)NC(=O)[C@@H](NC(=O)CNC(=O)/C=C/c1ccc(O)c(OC)c1)C(C)C [Compound 34, Ethyl N^5-(3-((4-Aminobutyl)amino)propyl)-N^2-((E)-3-(4-hydroxy-3-methoxyphenyl)acryloyl)glycyl-L-valyl-D-glutaminate] | > 10000 | –
